According to patent publication US20170121315A1, “HETEROBICYCLICALLY SUBSTITUTED 4-OXOBUTANE ACID DERIVATIVES AND USE THEREOF” (priority 2014, published 2017):

Biological target: T1, human macrophage elastase (HME/hMMP-12) (Homo sapiens, UniProt P39900)
T1 construct: purchased R&D Systems 917-MP
Assay: In vitro HME inhibition test (standard or high-sensitivity)
Type: biochemical
Settings: in some cases mean values, rounded to two significant figures
Protocol: The potency of the compounds according to the invention with respect to HME (MMP-12) is determined in an in vitro inhibition test. The HME-mediated amidolytic cleavage of a suitable peptide substrate leads to an increase in fluorescent light therein. The signal intensity of the fluorescent light is directly proportional to the enzyme activity. The active concentration of a test compound at which half the enzyme is inhibited (50% signal intensity of the fluorescent light) is reported as the IC50 value.
In a 384 hole microtiter plate, in a total test volume of 41 μl, the test buffer (0.1 M HEPES pH 7.4, 0.15 M NaCl, 0.03 M CaCl2, 0.004 mM ZnCl2, 0.02 M EDTA, 0.005% Brij®), the enzyme (0.5 nM HME; R&D Systems, 917-MP, autocatalytic activation according to the manufacturer's instructions) and the intramolecularly quenched substrate [5 μM Mca-Pro-Leu-Gly-Leu-Glu-Glu-Ala-Dap(Dnp)-NH2; Bachem, M-2670] are incubated in the absence and presence of the test substance (as a solution in DMSO) at 37° C. for two hours. The fluorescence intensity of the test mixtures is measured (excitation […], emission 393 nm). The IC50 values are ascertained by plotting the fluorescent light intensity against the active ingredient concentration.
In this case, an enzyme concentration ten times lower is used (final concentration, e.g. 0.05 nM) in order to achieve an increased test sensitivity. The incubation period chosen for the test is correspondingly longer (e.g. 16 hours).

T1 sequence (P39900 106-470): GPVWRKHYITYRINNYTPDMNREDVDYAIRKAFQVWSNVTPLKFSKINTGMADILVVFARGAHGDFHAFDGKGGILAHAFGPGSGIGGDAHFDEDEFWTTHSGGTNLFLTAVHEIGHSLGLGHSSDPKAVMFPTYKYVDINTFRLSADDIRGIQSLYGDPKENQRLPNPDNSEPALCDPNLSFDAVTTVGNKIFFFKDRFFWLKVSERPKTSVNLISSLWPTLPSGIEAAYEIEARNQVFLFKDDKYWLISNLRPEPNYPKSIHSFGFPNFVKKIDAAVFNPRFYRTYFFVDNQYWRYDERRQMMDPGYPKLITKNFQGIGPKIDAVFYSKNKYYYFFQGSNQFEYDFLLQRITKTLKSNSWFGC

Q: How did the IC50 turn out when `O=C(CC(CCn1nnc2ccccc2c1=O)C(=O)O)c1cc2cc(OCCc3ccccc3)ccc2o1` (single isomer, unassigned; (-)) [Example 20, (−)-4-Oxo-2-[2-(4-oxo-1,2,3-benzotriazin-3(4H)-yl)ethyl]-4-[5-(2-phenylethoxy)-1-benzofur-2-yl]butanoic acid] was run?
A: The IC50 was 860 nM.

Q: `O=C(CC(CCn1nnc2ccccc2c1=O)C(=O)O)c1cc2ccc(OCC3CC3)cc2s1` (single isomer, unassigned; (-)) [Example 113, (−)-4-[6-(Cyclopropylmethoxy)-1-benzothiophen-2-yl]-4-oxo-2-[2-(4-oxo-1,2,3-benzotriazin-3(4H)-yl)ethyl]butanoic acid] was tested. Which IC50 did it give?
A: The IC50 was 4300 nM.

Q: `O=C(CC(CCn1nnc2ccccc2c1=O)C(=O)O)c1cc2cc(OCCCC(F)(F)F)ccc2o1` (racemic) [Example 11, (+/−)-4-Oxo-2-[2-(4-oxo-1,2,3-benzotriazin-3(4H)-yl)ethyl]-4-[5-(4,4,4-trifluorobutoxy)-1-benzofur-2-yl]butanoic acid] was tested. Which IC50 did it give?
A: The IC50 was 4.3 nM.

Q: `COc1cccc(C(=O)COc2ccc3cc(C(=O)CC(CCn4nnc5ccccc5c4=O)C(=O)O)sc3c2)c1` (racemic) [Example 124, (+/−)-4-{6-[2-(3-Methoxyphenyl)-2-oxoethoxy]-1-benzothiophen-2-yl}-4-oxo-2-[2-(4-oxo-1,2,3-benzotriazin-3(4H)-yl)ethyl]butanoic acid] was tested. Which IC50 did it give?
A: Its IC50 is 0.95 nM.

Q: For `O=C(CC(CCn1nnc2ccccc2c1=O)C(=O)O)c1coc2cc(OCC3CCOCC3)ccc12` (single isomer, unassigned; (-)) [Example 97, (−)-4-Oxo-2-[2-(4-oxo-1,2,3-benzotriazin-3(4H)-yl)ethyl]-4-[6-(tetrahydro-2H-pyran-4-ylmethoxy)-1-benzofur-3-yl]butanoic acid], which IC50 is on record?
A: The IC50 was 25 nM.

Q: `NC(=O)c1cccc(COc2ccc3c(C(=O)CC(CCn4nnc5ccccc5c4=O)C(=O)O)noc3c2)c1` (racemic) [Example 139, (+/−)-4-{6-[(3-Carbamoylbenzyl)oxy]-1,2-benzoxazol-3-yl}-4-oxo-2-[2-(4-oxo-1,2,3-benzotriazin-3(4H)-yl)ethyl]butanoic acid] was tested. Which IC50 did it give?
A: Its IC50 is 0.58 nM.

Q: `O=C(CC(CCn1nnc2ccccc2c1=O)C(=O)O)c1cc2cc(OCc3ccc(Cl)c(Cl)c3)ccc2o1` (single isomer, unassigned; (-)) [Example 26, (−)-4-{5-[(3,4-Dichlorobenzyl)oxy]-1-benzofur-2-yl}-4-oxo-2-[2-(4-oxo-1,2,3-benzotriazin-3(4H)-yl)ethyl]butanoic acid] was tested. Which IC50 did it give?
A: The IC50 was 160 nM.

Q: With `CCCCCCOc1ccc2cc(C(=O)CC(CCn3nnc4ccccc4c3=O)C(=O)O)oc2c1` (single isomer, unassigned; (-)) [Example 65, (−)-4-[6-(Hexyloxy)-1-benzofur-2-yl]-4-oxo-2-[2-(4-oxo-1,2,3-benzotriazin-3(4H)-yl)ethyl]butanoic acid] as the compound, how does the IC50 read?
A: The IC50 was 340 nM.

Q: With `CCCCOc1ccc2c(C(=O)CC(CCn3nnc4ccccc4c3=O)C(=O)O)coc2c1` (single isomer, unassigned; (+)) [Example 108, (+)-4-(6-Butoxy-1-benzofur-3-yl)-4-oxo-2-[2-(4-oxo-1,2,3-benzotriazin-3(4H)-yl)ethyl]butanoic acid] as the compound, how does the IC50 read?
A: The IC50 was 0.23 nM.

Q: For `O=C(CC(CCn1nnc2ccccc2c1=O)C(=O)O)c1cc2cc(OCc3cc(F)ccc3F)ccc2o1` (racemic) [Example 49, (+/−)-4-{5-[(2,5-Difluorobenzyl)oxy]-1-benzofur-2-yl}-4-oxo-2-[2-(4-oxo-1,2,3-benzotriazin-3(4H)-yl)ethyl]butanoic acid], which IC50 is on record?
A: Its IC50 is 0.55 nM.

Q: How did the IC50 turn out when `CC(C)CCCCOc1ccc2oc(C(=O)CC(CCn3nnc4ccccc4c3=O)C(=O)O)cc2c1` (racemic) [Example 41, (+/−)-4-{5-[(5-Methylhexyl)oxy]-1-benzofur-2-yl}-4-oxo-2-[2-(4-oxo-1,2,3-benzotriazin-3(4H)-yl)ethyl]butanoic acid] was run?
A: The IC50 was 3.9 nM.

Q: Which IC50 does the source give for `NC(=O)c1cccc(COc2ccc3oc(C(=O)CC(CCn4nnc5ccccc5c4=O)C(=O)O)cc3c2)c1` (single isomer, unassigned; (-)) [Example 33, (−)-4-{5-[(3-Carbamoylbenzyl)oxy]-1-benzofur-2-yl}-4-oxo-2-[2-(4-oxo-1,2,3-benzotriazin-3(4H)-yl)ethyl]butanoic acid] here?
A: The IC50 was 350 nM.

Q: `CCCCOc1ccc2cc(C(=O)CC(CCn3nnc4ccccc4c3=O)C(=O)O)oc2c1` (racemic) [Example 61, (+/−)-4-(6-Butoxy-1-benzofur-2-yl)-4-oxo-2-[2-(4-oxo-1,2,3-benzotriazin-3(4H)-yl)ethyl]butanoic acid] was tested. Which IC50 did it give?
A: The IC50 was 4.6 nM.

Q: For `O=C(CC(CCn1nnc2ccccc2c1=O)C(=O)O)c1cc2cc(OCc3ccccc3F)ccc2o1` (racemic) [Example 45, (+/−)-4-{5-[(2-Fluorobenzyl)oxy]-1-benzofur-2-yl}-4-oxo-2-[2-(4-oxo-1,2,3-benzotriazin-3(4H)-yl)ethyl]butanoic acid], which IC50 is on record?
A: The IC50 was 2.3 nM.

Q: Which IC50 does the source give for `O=C(CC(CCn1nnc2ccccc2c1=O)C(=O)O)c1coc2cc(OCC3CCCC3)ccc12` (single isomer, unassigned; (-)) [Example 79, (−)-4-[6-(Cyclopentylmethoxy)-1-benzofur-3-yl]-4-oxo-2-[2-(4-oxo-1,2,3-benzotriazin-3(4H)-yl)ethyl]butanoic acid] here?
A: The IC50 was 1900 nM.

Q: With `O=C(CC(CCn1nnc2ccccc2c1=O)C(=O)O)c1noc2cc(OCc3ccc(F)cc3)ccc12` (single isomer, unassigned; enantiomer 2) [Example 138, 4-{6-[(4-Fluorobenzyl)oxy]-1,2-benzoxazol-3-yl}-4-oxo-2-[2-(4-oxo-1,2,3-benzotriazin-3(4H)-yl)ethyl]butanoic acid (enantiomer 2)] as the compound, how does the IC50 read?
A: The IC50 was 0.33 nM.

Q: With `O=C(CC(CCn1nnc2ccccc2c1=O)C(=O)O)c1cc2cc(OCC3CCCC3)ccc2o1` (single isomer, unassigned; enantiomer 2) [Example 18, (+)-4-[5-(Cyclopentylmethoxy)-1-benzofur-2-yl]-4-oxo-2-[2-(4-oxo-1,2,3-benzotriazin-3(4H)-yl)ethyl]butanoic acid (enantiomer 2)] as the compound, how does the IC50 read?
A: Its IC50 is 6 nM.

Q: With `O=C(CC(CCn1nnc2ccccc2c1=O)C(=O)O)c1cc2ccc(OCc3ccc(F)cc3)cc2s1` (racemic) [Example 125, (+/−)-4-{6-[(4-Fluorobenzyl)oxy]-1-benzothiophen-2-yl}-4-oxo-2-[2-(4-oxo-1,2,3-benzotriazin-3(4H)-yl)ethyl]butanoic acid] as the compound, how does the IC50 read?
A: The IC50 was 4 nM.

Q: How did the IC50 turn out when `O=C(CC(CCn1nnc2ccccc2c1=O)C(=O)O)c1noc2cc(OCc3ccc(F)cc3)ccc12` (single isomer, unassigned; enantiomer 1) [Example 137, 4-{6-[(4-Fluorobenzyl)oxy]-1,2-benzoxazol-3-yl}-4-oxo-2-[2-(4-oxo-1,2,3-benzotriazin-3(4H)-yl)ethyl]butanoic acid (enantiomer 1)] was run?
A: Its IC50 is 35 nM.

Q: `NC(=O)c1ccc(COc2ccc3oc(C(=O)CC(CCn4nnc5ccccc5c4=O)C(=O)O)cc3c2)cc1` (racemic) [Example 35, (+/−)-4-{5-[(4-Carbamoylbenzyl)oxy]-1-benzofur-2-yl}-4-oxo-2-[2-(4-oxo-1,2,3-benzotriazin-3(4H)-yl)ethyl]butanoic acid] was tested. Which IC50 did it give?
A: Its IC50 is 2 nM.

Q: For `CC(C)CCOc1ccc2cc(C(=O)CC(CCn3nnc4ccccc4c3=O)C(=O)O)sc2c1` (racemic) [Example 122, (+/−)-4-[6-(3-Methylbutoxy)-1-benzothiophen-2-yl]-4-oxo-2-[2-(4-oxo-1,2,3-benzotriazin-3(4H)-yl)ethyl]butanoic acid], which IC50 is on record?
A: Its IC50 is 4.5 nM.

Q: Which IC50 does the source give for `CCOc1ccc2cc(C(=O)CC(CCn3nnc4ccccc4c3=O)C(=O)O)sc2c1` (racemic) [Example 127, (+/−)-4-(6-Ethoxy-1-benzothiophen-2-yl)-4-oxo-2-[2-(4-oxo-1,2,3-benzotriazin-3(4H)-yl)ethyl]butanoic acid] here?
A: Its IC50 is 2.8 nM.

Q: Which IC50 does the source give for `O=C(CC(CCn1nnc2ccccc2c1=O)C(=O)O)c1coc2cc(OCCc3ccccc3)ccc12` (racemic) [Example 110, (+/−)-4-Oxo-2-[2-(4-oxo-1,2,3-benzotriazin-3(4H)-yl)ethyl]-4-[6-(2-phenylethoxy)-1-benzofur-3-yl]butanoic acid] here?
A: Its IC50 is 0.54 nM.

Q: How did the IC50 turn out when `O=C(CC(CCn1nnc2ccccc2c1=O)C(=O)O)c1noc2cc(OCCC3CCCCC3)ccc12` (single isomer, unassigned; enantiomer 1) [Example 142, (−)-4-[6-(2-Cyclohexylethoxy)-1,2-benzoxazol-3-yl]-4-oxo-2-[2-(4-oxo-1,2,3-benzotriazin-3(4H)-yl)ethyl]butanoic acid (enantiomer 1)] was run?
A: Its IC50 is 15 nM.

Q: With `O=C(CC(CCn1nnc2ccccc2c1=O)C(=O)O)c1cc2cc(OCc3ccc(F)cc3F)ccc2o1` (racemic) [Example 52, (+/−)-4-{5-[(2,4-Difluorobenzyl)oxy]-1-benzofur-2-yl}-4-oxo-2-[2-(4-oxo-1,2,3-benzotriazin-3(4H)-yl)ethyl]butanoic acid] as the compound, how does the IC50 read?
A: Its IC50 is 2.1 nM.

Q: Which IC50 does the source give for `O=C(CC(CCn1nnc2ccccc2c1=O)C(=O)O)c1cc2ccc(OCC(=O)C3CC3)cc2s1` (racemic) [Example 115, (+/−)-4-[6-(2-Cyclopropyl-2-oxoethoxy)-1-benzothiophen-2-yl]-4-oxo-2-[2-(4-oxo-1,2,3-benzotriazin-3(4H)-yl)ethyl]butanoic acid] here?
A: The IC50 was 3.1 nM.
